Reference: patent US20090149375A1, “USE OF THE MST PROTEIN FOR THE TREATMENT OF A THROMBOEMBOLIC DISORDER” (SANOFI-AVENTIS, priority 2005, published 2009)

Target: T1, GST-Mst1 (Homo sapiens, UniProt Q13043)
T1 sequence (Q13043 1-487): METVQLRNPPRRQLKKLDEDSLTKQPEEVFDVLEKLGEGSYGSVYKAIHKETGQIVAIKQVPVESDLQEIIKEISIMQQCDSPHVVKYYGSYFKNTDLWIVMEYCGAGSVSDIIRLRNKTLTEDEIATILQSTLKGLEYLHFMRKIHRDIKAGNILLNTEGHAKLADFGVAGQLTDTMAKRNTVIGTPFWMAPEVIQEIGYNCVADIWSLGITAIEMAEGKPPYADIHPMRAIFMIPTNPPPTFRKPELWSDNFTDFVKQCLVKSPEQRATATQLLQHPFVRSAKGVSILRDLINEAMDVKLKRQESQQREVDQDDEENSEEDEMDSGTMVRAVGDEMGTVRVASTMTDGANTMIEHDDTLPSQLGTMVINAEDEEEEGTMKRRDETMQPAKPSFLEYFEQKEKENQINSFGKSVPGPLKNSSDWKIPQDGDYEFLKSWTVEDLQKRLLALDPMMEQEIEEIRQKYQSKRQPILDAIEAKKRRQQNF
Assay: GST-Mst1 in vitro kinase assay (ATP consumption assay)
Details: result in words

CN[C@@H]1C[C@H]2O[C@@](C)([C@@H]1OC)n1c3ccccc3c3c4c(c5c6ccccc6n2c5c31)C(=O)NC4 [staurosporine]
inhibition of MST1 kinase activity (ATP consumption): completely inhibit
inhibition of MST1 kinase activity (ATP consumption) (listed as Staurosporine): inhibit completely
